Counter-ions that a name gives are not always drawn.

Chain of [MCL-1]-[compound of formula (I)]-[CRBN/DDB1] complex (Q07820 whole entry): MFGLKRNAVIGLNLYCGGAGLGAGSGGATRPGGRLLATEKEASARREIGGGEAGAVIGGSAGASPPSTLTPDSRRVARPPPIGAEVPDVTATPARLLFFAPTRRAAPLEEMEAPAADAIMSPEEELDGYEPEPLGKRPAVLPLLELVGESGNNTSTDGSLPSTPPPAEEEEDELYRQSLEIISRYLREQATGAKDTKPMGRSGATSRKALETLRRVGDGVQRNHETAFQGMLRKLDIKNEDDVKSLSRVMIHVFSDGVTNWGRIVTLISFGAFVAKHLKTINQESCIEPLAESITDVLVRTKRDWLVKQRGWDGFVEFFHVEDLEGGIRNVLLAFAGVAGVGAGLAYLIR
Chain of [MCL-1]-[compound of formula (I)]-[CRBN/DDB1] complex (Q96SW2 whole entry): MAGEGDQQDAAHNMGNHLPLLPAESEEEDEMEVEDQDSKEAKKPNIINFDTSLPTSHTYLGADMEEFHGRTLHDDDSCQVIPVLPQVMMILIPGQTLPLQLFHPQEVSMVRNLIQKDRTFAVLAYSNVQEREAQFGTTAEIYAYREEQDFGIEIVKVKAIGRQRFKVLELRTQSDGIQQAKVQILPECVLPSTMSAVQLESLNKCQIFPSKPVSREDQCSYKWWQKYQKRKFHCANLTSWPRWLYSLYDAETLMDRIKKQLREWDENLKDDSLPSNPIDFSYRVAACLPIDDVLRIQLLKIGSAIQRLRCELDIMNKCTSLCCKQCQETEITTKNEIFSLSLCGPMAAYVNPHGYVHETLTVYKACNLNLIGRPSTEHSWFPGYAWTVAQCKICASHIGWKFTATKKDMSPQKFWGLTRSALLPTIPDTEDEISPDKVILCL
Chain of [MCL-1]-[compound of formula (I)]-[CRBN/DDB1] complex (Q16531 whole entry partner): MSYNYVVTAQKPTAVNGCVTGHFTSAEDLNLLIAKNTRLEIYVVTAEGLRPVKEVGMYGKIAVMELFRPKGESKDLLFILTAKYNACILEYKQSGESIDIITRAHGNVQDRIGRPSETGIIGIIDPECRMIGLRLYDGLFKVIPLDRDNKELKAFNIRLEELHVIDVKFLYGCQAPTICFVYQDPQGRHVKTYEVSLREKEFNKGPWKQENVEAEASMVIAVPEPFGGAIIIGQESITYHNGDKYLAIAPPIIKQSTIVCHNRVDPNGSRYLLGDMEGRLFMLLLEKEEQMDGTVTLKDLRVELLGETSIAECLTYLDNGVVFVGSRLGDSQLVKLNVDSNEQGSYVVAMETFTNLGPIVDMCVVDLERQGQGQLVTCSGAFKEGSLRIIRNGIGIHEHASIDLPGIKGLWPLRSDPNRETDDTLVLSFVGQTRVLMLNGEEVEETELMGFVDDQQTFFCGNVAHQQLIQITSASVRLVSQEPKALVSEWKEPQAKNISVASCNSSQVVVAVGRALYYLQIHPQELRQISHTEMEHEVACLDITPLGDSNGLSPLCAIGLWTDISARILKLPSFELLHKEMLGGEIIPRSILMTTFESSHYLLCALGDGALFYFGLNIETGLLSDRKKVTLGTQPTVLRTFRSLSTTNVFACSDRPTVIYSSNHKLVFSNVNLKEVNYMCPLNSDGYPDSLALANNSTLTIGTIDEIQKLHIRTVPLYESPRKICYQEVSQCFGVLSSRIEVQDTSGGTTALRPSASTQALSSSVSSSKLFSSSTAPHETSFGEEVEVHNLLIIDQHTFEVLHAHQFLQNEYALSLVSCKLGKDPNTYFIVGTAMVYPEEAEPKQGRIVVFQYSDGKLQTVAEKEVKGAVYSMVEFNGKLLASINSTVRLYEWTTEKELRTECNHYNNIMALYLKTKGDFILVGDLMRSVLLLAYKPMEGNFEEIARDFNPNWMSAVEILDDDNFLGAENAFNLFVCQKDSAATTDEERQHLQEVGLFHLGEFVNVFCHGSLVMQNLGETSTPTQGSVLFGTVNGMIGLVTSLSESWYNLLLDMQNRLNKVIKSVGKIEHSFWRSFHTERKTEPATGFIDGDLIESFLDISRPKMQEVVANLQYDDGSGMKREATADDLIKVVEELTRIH

One test concerns the target [MCL-1]-[compound of formula (I)]-[CRBN/DDB1] complex (Homo sapiens, UniProt Q07820+Q96SW2). The test can be described thus: AlphaLISA dose response ternary complex formation assay. The format is binding. The settings on record: read-out: AlphaLISA dose response Average pEC50 by molecule (converted). As to the method:
The effect of the bifunctional compounds of the invention on the formation of a ternary complex composed of [MCL-1]-[compound of formula (I)]-[CRBN/DDB1] was investigated with two methods: AlphaLISA dose response assay or HTRF ternary complex assay.
Two types of protein solution were prepared: • 40 nM biotinylated hMCL-1, 40 μg/ml AlphaScreen Streptavidin-coated Donor Beads in PBS buffer with 0.1% Tween-20 and 1 mM DTT, • 200 nM 6×His-CRBN/Strep-DDB1, 40 μg/ml AlphaLISA Anti-6×His Acceptor beads in PBS buffer with 0.1% Tween-20 and 1 mM DTT.
The prepared solutions were incubated at room temperature for 45 min and then the solution containing the donor beads was mixed with the solution containing the acceptor beads.
The tested compounds were dispensed onto a white 384-well AlphaPlate 384 SW. DMSO was backfilled to all wells, resulting in a final DMSO content of 2%. Wells containing only DMSO served as background. Next, 10 μl of solution with donor and acceptor beads was added to the wells.
The plate was sealed with transparent film and shaken using a VibroTurbulator for 60 see at room temperature, level 3. The plate was then spun down shortly (10 s, 1000 rcf, room temperature) and incubated at 25° C. for 30 min.
The read-out was performed with PerkinElmer Enspire Multimode Plate Reader (method for AlphaLISA 384-well low volume, Filterset: λexc=680 nm, λem=615 nm).
The results were analyzed as follows: • 1) an average of luminescence for background signal was calculated and used as a negative control; • 2) average of the maximum measured luminescence for 233 was calculated and used as an internal positive control; • 3) raw luminescence values were normalized against positive and negative controls; • 4) concentration points above the hook point were excluded; • 5) EC50 and pEC50 values were determined.
On the technique in general: Bead proximity is the source of the signal in Alpha formats.
Consider `Cc1cc(OCCCc2c(C(=O)O)n(CCN3CCN(C(=O)CNc4cccc5c4C(=O)N(C4CCC(=O)NC4=O)C5=O)CC3)c3c(-c4c(C)nn(C)c4C)cccc23)cc(C)c1Cl` (stereo not shown) [Compound 233, 3-(3-(4-chloro-3,5-dimethylphenoxy)propyl)-1-(2-(4-((2-(2,6-dioxopiperidin-3-yl)-1,3-dioxoisoindolin-4-yl)glycyl)piperazin-1-yl)ethyl)-7-(1,3,5-trimethyl-1H-pyrazol-4-yl)-1H-indole-2-carboxylic acid], for which the EC50 is under 1000 nM. The same measure, in the same setting: next, `Cc1nn(C)c(C)c1-c1c(Cl)ccc2c(CCCOc3cccc4ccccc34)c(C(=O)O)n(CCN3CC4CC(C3)N4C(=O)COc3cccc4c3C(=O)N(C3CCC(=O)NC3=O)C4=O)c12` (stereo not shown) [Compound 208, 6-chloro-1-(2-(6-(2-((2-(2,6-dioxopiperidin-3-yl)-1,3-dioxoisoindolin-4-yl)oxy)acetyl)-3,6-diazabicyclo[3.1.1]heptan-3-yl)ethyl)-3-(3-(naphthalen-1-yloxy)propyl)-7-(1,3,5-trimethyl-1H-pyrazol-4-yl)-1H-indole-2-carboxylic acid]: under 100 nM; `Cc1nn(C)c(COc2ccc(N3CCN(S(=O)(=O)N(C)C)CC3)cc2)c1-c1cccc2c(CCCOc3cccc4ccccc34)c(C(=O)O)n(CCN3CCN(C(=O)COc4ccc5c(c4)C(=O)N(C4CCC(=O)NC4=O)C5=O)CC3)c12` (stereo not shown) [Compound 248, 7-(5-((4-(4-(N,N-dimethylsulfamoyl)piperazin-1-yl)phenoxy)methyl)-1,3-dimethyl-1H-pyrazol-4-yl)-1-(2-(4-(2-((2-(2,6-dioxopiperidin-3-yl)-1,3-dioxoisoindolin-5-yl)oxy)acetyl)piperazin-1-yl)ethyl)-3-(3-(naphthalen-1-yloxy)propyl)-1H-indole-2-carboxylic acid]: under 1000 nM. Same read-out and setting: next, `Cc1nn(C)c(C)c1-c1c(Cl)ccc2c(CCCOc3cccc4c3CCCC4)c(C(=O)O)n(CCN3CCN(C(=O)COc4cccc5c4CN(C4CCC(=O)NC4=O)C5=O)CC3)c12` (stereo not shown) [Compound 219, 6-chloro-1-(2-(4-(2-((2-(2,6-dioxopiperidin-3-yl)-1-oxoisoindolin-4-yl)oxy)acetyl)piperazin-1-yl)ethyl)-3-(3-((5,6,7,8-tetrahydronaphthalen-1-yl)oxy)propyl)-7-(1,3,5-trimethyl-1H-pyrazol-4-yl)-1H-indole-2-carboxylic acid]: under 10 nM.

In the case of `Cc1nn(CCCOCCOCCNc2cccc3c2C(=O)N(C2CCC(=O)NC2=O)C3=O)c(C)c1-c1cccc2c(CCCOc3cccc4ccccc34)c(C(=O)O)n(CCN3CCOCC3)c12` (stereo not shown) [Compound 232, 7-(1-(3-(2-(2-((2-(2,6-dioxopiperidin-3-yl)-1,3-dioxoisoindolin-4-yl)amino)ethoxy)ethoxy)propyl)-3,5-dimethyl-1H-pyrazol-4-yl)-1-(2-morpholinoethyl)-3-(3-(naphthalen-1-yloxy)propyl)-1H-indole-2-carboxylic acid], the EC50 was under 1000 nM.

Take `Cc1nn(C)c(COc2ccc(N3CCN(S(=O)(=O)N(C)C)CC3)cc2)c1-c1cccc2c(CCCOc3cccc4ccccc34)c(C(=O)O)n(CCN3CCN(CCCOCCOCCNc4cccc5c4C(=O)N(C4CCC(=O)NC4=O)C5=O)CC3)c12` (stereo not shown) [Compound 247, 7-(5-((4-(4-(N,N-dimethylsulfamoyl)piperazin-1-yl)phenoxy)methyl)-1,3-dimethyl-1H-pyrazol-4-yl)-1-(2-(4-(3-(2-(2-((2-(2,6-dioxopiperidin-3-yl)-1,3-dioxoisoindolin-4-yl)amino)ethoxy)ethoxy)propyl)piperazin-1-yl)ethyl)-3-(3-(naphthalen-1-yloxy)propyl)-1H-indole-2-carboxylic acid trifluoroacetate]: the EC50 is under 1000 nM. With `Cc1c(-c2cccc3c(CCCOc4cccc5ccccc45)c(C(=O)O)n(CCN4CCN(C(=O)COc5cccc6c5C(=O)N(C5CCC(=O)NC5=O)C6=O)CC4)c23)c(COc2ccc(Br)c(C=O)c2)nn1C` (stereo not shown) [Compound 251, 7-(3-((4-Bromo-3-formylphenoxy)methyl)-1,5-dimethyl-1H-pyrazol-4-yl)-1-(2-(4-(2-((2-(2,6-dioxopiperidin-3-yl)-1,3-dioxoisoindolin-4-yl)oxy)acetyl)piperazin-1-yl)ethyl)-3-(3-(naphthalen-1-yloxy)propyl)-1H-indole-2-carboxylic acid], the EC50 was under 100 nM. The same measure, in the same setting: next, `Cc1nn(C)c(C)c1-c1c(Cl)ccc2c(CCCOc3cccc4ccccc34)c(C(=O)O)n(CCN3CCN(C(=O)COc4cc(C(F)(F)F)nc5c(C(=O)NC6CCC(=O)NC6=O)scc45)CC3)c12` (stereo not shown) [Compound 267, 6-chloro-1-(2-{4-[2-({7-[(2,6-dioxopiperidin-3-yl)carbamoyl]-2-(trifluoromethyl)thieno[3,4-b]pyridin-4-yl}oxy)acetyl]piperazin-1-yl}ethyl)-3-[3-(naphthalen-1-yloxy)propyl]-7-(1,3,5-trimethyl-1H-pyrazol-4-yl)-1H-indole-2-carboxylic acid]: under 100 nM; `Cc1nn(C)c(C)c1-c1c(Cl)ccc2c(CCCOc3cccc4ccccc34)c(C(=O)O)n(CCN3C[C@@H]4C[C@H]3CN4C(=O)COc3cccc4c3CN(C3CCC(=O)NC3=O)C4=O)c12` (stereo partly drawn) [Compound 209, 6-chloro-1-{2-[(1S,4S)-5-(2-{[2-(2,6-dioxopiperidin-3-yl)-1-oxo-2,3-dihydro-1H-isoindol-4-yl]oxy}acetyl)-2,5-diazabicyclo[2.2.1]heptan-2-yl]ethyl}-3-[3-(naphthalen-1-yloxy)propyl]-7-(1,3,5-trimethyl-1H-pyrazol-4-yl)-1H-indole-2-carboxylic acid]: under 100 nM.

As for `Cc1cc(OCCCc2c(C(=O)O)n(C)c3c(-c4c(C)nn(CCCOCCOCCNc5cccc6c5C(=O)N(C5CCC(=O)NC5=O)C6=O)c4C)cccc23)cc(C)c1Cl` (stereo not shown) [Compound 227, 3-(3-(4-chloro-3,5-dimethylphenoxy)propyl)-7-(1-(3-(2-(2-((2-(2,6-dioxopiperidin-3-yl)-1,3-dioxoisoindolin-4-yl)amino)ethoxy)ethoxy)propyl)-3,5-dimethyl-1H-pyrazol-4-yl)-1-methyl-1H-indole-2-carboxylic acid], the EC50 is under 1000 nM.

With `Cc1nn(C)c(C)c1-c1c(Cl)ccc2c(CCCN(C)c3cccc4ccccc34)c(C(=O)O)n(CCN3CCN(C(=O)COc4cccc5c4CN(C4CCC(=O)NC4=O)C5=O)CC3)c12` (stereo not shown) [Compound 353, 6-Chloro-1-(2-(4-(2-((2-(2,6-dioxopiperidin-3-yl)-1-oxoisoindolin-4-yl)oxy)acetyl)piperazin-1-yl)ethyl)-3-(3-(methyl(naphthalen-1-yl)amino)propyl)-7-(1,3,5-trimethyl-1H-pyrazol-4-yl)-1H-indole-2-carboxylic acid], the EC50 is under 1000 nM.

Another test concerns MV-4-11 cells. The test can be described thus: Cell viability assay (CellTiter-Glo), MV-4-11. The format is cell-based. The settings on record: Homo sapiens, MV4-11, 24 hours incubation, 1% FBS, read-out: Average pIC50 by molecule MV-4-11 (converted). The text has this:
The effect of various compounds of the invention on the viability of OPM-2, MV-4-11 and ARH-77 cell lines was investigated, using the CTG protocol described below.
OPM-2 and MV-4-11 cell lines are derived from multiple myeloma and acute myeloid leukaemia, respectively. Both cell lines are described in the literature as MCL-1 dependent lines, as opposed to lymphoblast-like ARH-77 cell line, which is described as independent of MCL-1 (Tron A E et al. Nat Commun. 2018; 9: 5341; Caenepeel S et al. Cancer Discov. 2018 December; 8(12):1582-1597).
Cells (OPM-2, MV-4-11 or ARH-77) were seeded on […] in a growth medium with FBS reduced to 1%. Next, compound stocks were pre-diluted in DMSO and added directly to the cells growth medium (final DMSO concentration: 0.5%). Compound concentrations used in this assay: 1/3 dilutions starting at 30 uM (9 to 12 points).
After 24 hours of incubation, cell viability was evaluated using CellTiter-Glo Luminescent Cell Viability Assay (Promega, cat #G7572). Luminescence signal was measured using a CLARIOstar Plus Multi-Mode Microplate Reader (574-590 nm).
Results were normalized to DMSO control.
On the technique in general: ATP-based viability assays read luminescence as a measure of living cells.
With `Cc1nn(C)c(C)c1-c1c(Cl)ccc2c(CCCOc3cccc4ccccc34)c(C(=O)O)n(CCN3CCN(C(=O)CCc4nc5c(C(=O)NC6CCC(=O)NC6=O)cccc5[nH]4)CC3)c12` (stereo not shown) [Compound 265], the IC50 is at most 1000 nM. Regarding `Cc1nn(C)c(C)c1-c1c(Cl)ccc2c(CCCOc3cccc4ccccc34)c(C(=O)O)n(CCN3CCN(C(=O)COc4cccc5c4C(=O)N(C4CCC(=O)N(C)C4=O)C5=O)CC3)c12` (stereo not shown) [Compound 205, 6-chloro-1-(2-(4-(2-((2-(1-methyl-2,6-dioxopiperidin-3-yl)-1,3-dioxoisoindolin-4-yl)oxy)acetyl)piperazin-1-yl)ethyl)-3-(3-(naphthalen-1-yloxy)propyl)-7-(1,3,5-trimethyl-1H-pyrazol-4-yl)-1H-indole-2-carboxylic acid], the IC50 is at most 316 nM.

(Values after US20240294499A1, “TARGETED PROTEIN DEGRADATION USING BIFUNCTIONAL COMPOUNDS THAT BIND UBIQUITIN LIGASE AND TARGET MCL-1 PROTEIN” (Captor Therapeutics S.A., priority 2021, published 2024).)
